Laboratory results: US10669272B2, “Substituted naphthyridinone compounds useful as T cell activators” (BRISTOL-MYERS SQUIBB COMPANY, priority 2018, dated 2020)
Like-named read-outs stand apart in the source and are kept apart here.

Assays:
human DGKα = molecular target: T1, human DGKα (Homo sapiens, UniProt P23743); experiment: DGKα LIPGLO assay (extruded liposome substrate), in vitro DGK inhibition; type: biochemical; conditions: read-out: DGKa LIPGLO IC50
T1 construct: TVMV protease cleavage site (C); Hexa-His (C); made in house; host or cells: Sf9 insect cells (baculovirus, Bac-to-Bac)
T1 sequence (P23743 with tags, fused parts or gaps): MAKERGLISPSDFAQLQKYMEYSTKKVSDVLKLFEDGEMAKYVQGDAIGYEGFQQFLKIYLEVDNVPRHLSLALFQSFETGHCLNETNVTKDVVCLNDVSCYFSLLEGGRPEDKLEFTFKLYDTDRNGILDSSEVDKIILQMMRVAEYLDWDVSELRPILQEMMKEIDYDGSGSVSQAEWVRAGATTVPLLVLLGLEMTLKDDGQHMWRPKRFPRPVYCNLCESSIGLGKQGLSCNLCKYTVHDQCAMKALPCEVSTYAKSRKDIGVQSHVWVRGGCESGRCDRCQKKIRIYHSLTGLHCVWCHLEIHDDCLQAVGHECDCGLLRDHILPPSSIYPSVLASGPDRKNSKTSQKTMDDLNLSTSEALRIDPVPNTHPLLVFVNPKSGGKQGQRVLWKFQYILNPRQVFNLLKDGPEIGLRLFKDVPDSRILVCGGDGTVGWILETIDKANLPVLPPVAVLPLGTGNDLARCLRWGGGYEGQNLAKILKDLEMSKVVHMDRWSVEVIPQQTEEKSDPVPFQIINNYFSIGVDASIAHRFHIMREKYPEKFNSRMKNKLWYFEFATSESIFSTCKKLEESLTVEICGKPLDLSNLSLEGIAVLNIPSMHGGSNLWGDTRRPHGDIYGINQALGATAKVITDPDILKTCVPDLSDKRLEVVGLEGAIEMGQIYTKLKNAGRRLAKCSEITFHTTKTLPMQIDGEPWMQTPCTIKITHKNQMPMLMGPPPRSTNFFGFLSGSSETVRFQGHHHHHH

human DGKζ = molecular target: T2, human DGKζ (Homo sapiens, UniProt Q13574); experiment: DGKζ LIPGLO assay (extruded liposome substrate), in vitro DGK inhibition; type: biochemical; conditions: read-out: DGKz LIPGLO IC50
T2 construct: TVMV protease cleavage site (C); Hexa-His (C); made in house; host or cells: Sf9 insect cells (baculovirus, Bac-to-Bac)
T2 sequence (Q13574 with tags, fused parts or gaps isoform Q13574-4): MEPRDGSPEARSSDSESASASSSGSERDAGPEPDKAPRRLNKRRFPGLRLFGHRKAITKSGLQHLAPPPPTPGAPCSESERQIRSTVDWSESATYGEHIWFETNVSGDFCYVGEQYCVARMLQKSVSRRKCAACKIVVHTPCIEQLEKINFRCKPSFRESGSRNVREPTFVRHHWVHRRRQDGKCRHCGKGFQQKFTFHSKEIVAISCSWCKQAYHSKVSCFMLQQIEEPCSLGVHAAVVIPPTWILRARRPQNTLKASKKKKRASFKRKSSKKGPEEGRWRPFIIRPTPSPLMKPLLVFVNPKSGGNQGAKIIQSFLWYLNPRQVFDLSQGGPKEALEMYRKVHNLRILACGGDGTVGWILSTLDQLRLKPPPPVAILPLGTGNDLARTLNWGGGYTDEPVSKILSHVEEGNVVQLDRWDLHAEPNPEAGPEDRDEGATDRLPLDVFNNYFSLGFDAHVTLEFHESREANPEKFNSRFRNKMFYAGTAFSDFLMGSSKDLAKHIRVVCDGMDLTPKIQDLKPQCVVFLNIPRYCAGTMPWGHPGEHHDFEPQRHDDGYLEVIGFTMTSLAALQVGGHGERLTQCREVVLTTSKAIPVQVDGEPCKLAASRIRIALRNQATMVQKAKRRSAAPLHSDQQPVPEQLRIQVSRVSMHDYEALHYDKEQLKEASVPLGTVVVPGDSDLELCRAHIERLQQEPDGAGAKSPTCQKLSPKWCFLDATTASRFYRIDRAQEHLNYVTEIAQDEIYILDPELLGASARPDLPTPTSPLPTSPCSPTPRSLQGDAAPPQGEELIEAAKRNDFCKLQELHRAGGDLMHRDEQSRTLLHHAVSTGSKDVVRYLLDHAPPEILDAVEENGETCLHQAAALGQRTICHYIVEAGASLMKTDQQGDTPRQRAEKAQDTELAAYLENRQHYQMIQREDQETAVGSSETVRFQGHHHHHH

Human venous whole blood = experiment: Human whole blood IFN-γ assay; type: cell-based; conditions: human whole blood, read-out: INFg Whole Blood Normalized Agonist EC50;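 note: blood from healthy donors exposed to compound for 1 h before stimulation with anti-CD3 and anti-CD28 at 1 µg/mL each, IFN-γ quantified in supernatant by AlphaLISA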
Description: Human Whole Blood IFN-γ Assay
Human venous whole blood (22.5 μL per well), obtained from healthy donors, was pre-treated with compounds for one hour at 37° C. in a humidified 95% air/5% CO2 incubator. The blood was stimulated with 2.5 μL anti-human CD3 and anti-CD28 mAb at a final concentration of 1 μg/mL each for 24 hours at 37° C. IFN-γ in the supernatants was measured using AlphLISA kit (Cat # AL217).

[1] = Homo sapiens, 24 h, normalized to 3 μM reference compound with anti-CD3 plus anti-CD28 as 100% activation
[2] = normalized to 3 μM reference compound with anti-CD3 plus anti-CD28 as 100% activation
[3] = Homo sapiens, 24 h, anti-CD3 plus anti-CD28, 24 hours, 3 μM reference compound = 100% activation
[4] = anti-CD3 plus anti-CD28, 24 hours, 3 μM reference compound = 100% activation

Structure (SMILES)	IC50 (human DGKα; liposome (LIPGLO) assay)	IC50 (human DGKζ; liposome (LIPGLO) assay)	EC50 (Human venous whole blood; [1])	EC50 (Human venous whole blood; [2])	IC50 (human DGKα; DGKα liposome (LIPGLO) assay)	IC50 (human DGKζ; DGKζ liposome (LIPGLO) assay)	EC50 (Human venous whole blood; [3])	EC50 (Human venous whole blood; [4])
COC[C@H]1CN(c2cc(=O)n(C)c3ccc(C#N)nc23)[C@H](C)CN1C(c1ccc(F)cc1)c1ccc(F)cc1 [Example 1183, 8-((2R,5R)-4-(bis(4-fluorophenyl)methyl)-5-(methoxymethyl)-2-methylpiperazin-1-yl)-5-methyl-6-oxo-5,6-dihydro-1,5-naphthyridine-2-carbonitrile]	> 250000 nM	8900 nM	9200 nM					
COc1ccc(OC(F)(F)F)cc1CN1C[C@H](C)N(c2cc(=O)n(C)c3ccc(C#N)nc23)C[C@H]1C [Example 601]	2100 nM	7700 nM	3300 nM					
COC[C@@H]1CN(c2cc(=O)n(C)c3ccc(C#N)nc23)[C@@H](C)CN1C(C)c1ccc(F)cc1 (single isomer, unassigned) [Example 1159]	360 nM	130 nM	300 nM					
CCC(c1ccc(OC(C)C)cc1)N1C[C@H](C)N(c2cc(=O)n(C)c3ccc(C#N)nc23)C[C@H]1C (single isomer, unassigned) [Example 1450]	22000 nM	3600 nM		6800 nM				
CC(c1ccc(OC(F)(F)F)cc1)N1C[C@H](C)N(c2cc(=O)n(C)c3ccc(C#N)nc23)C[C@H]1CN1CCN(C)CC1 (stereo partly drawn) [Example 1417]	26000 nM	65000 nM	11000 nM					
C[C@@H]1CN(c2c(C#N)c(=O)n(C)c3ccc(C#N)nc23)[C@@H](C)CN1C(c1ccc(Cl)cc1)c1ccc(F)cn1 (single isomer, unassigned) [Example 829]					5500 nM	8000 nM	1200 nM	
CC[C@H]1CN(C(C)c2cc(F)cc(OC(F)(F)F)c2)[C@H](C)CN1c1cc(=O)n(C)c2ccc(C#N)nc12 (stereo partly drawn) [Example 1385]	5900 nM	700 nM		5300 nM				
CC(c1ccc(F)cc1)N1CCN(c2c(C#N)c(=O)n(C)c3ccc(C#N)nc23)C[C@H]1C (single isomer, unassigned) [Example 957]					260 nM	8600 nM		1700 nM
C[C@@H]1CN(c2c(C#N)c(=O)n(C)c3ccc(C#N)nc23)CCN1C(c1ccc(F)cc1)c1nccs1 (single isomer, unassigned) [Example 1025]	1200 nM	19000 nM		2000 nM				
C[C@@H]1CN(c2c(C#N)c(=O)n(C)c3ccc(C#N)nc23)CCN1C(c1ccc(F)cc1)c1ccccc1F (stereo partly drawn) [Example 882]					820 nM	960 nM		1700 nM
CCC(c1ccc(OC(F)(F)F)cc1)N1C[C@H](C)N(c2cc(=O)n(C)c3ccc(C#N)nc23)C[C@H]1CC (single isomer, unassigned) [Example 1198]	990 nM	1100 nM		1700 nM				
C[C@@H]1CN(c2c(C#N)c(=O)n(C)c3ccc(C#N)nc23)CCN1C(c1ccc(F)cc1)c1cccc(F)c1 (stereo partly drawn) [Example 881]					5300 nM	3000 nM		2100 nM
C[C@@H]1CN(c2cc(=O)n(C)c3ccc(C#N)nc23)[C@@H](C)CN1C(c1ccc(F)cc1)c1cnn(C)c1 (single isomer, unassigned) [Example 703]	4000 nM	2500 nM		1200 nM				
Cc1ccc(C(c2ccc(C#N)cc2)N2C[C@H](C)N(c3cc(=O)n(C)c4ccc(C#N)nc34)C[C@H]2C)nc1 (stereo partly drawn) [Example 453, 8-((2S,5R)-4-((4-cyanophenyl)(5-methylpyridin-2-yl)methyl)-2,5-dimethylpiperazin-1-yl)-5-methyl-6-oxo-5,6-dihydro-1,5-naphthyridine-2-carbonitrile]	310 nM	1000 nM		2800 nM				
CC[C@H]1CN(C(c2ccc(Cl)cc2)c2ccc(F)cn2)[C@H](C)CN1c1cc(=O)n(C)c2ccc(C#N)nc12 (single isomer, unassigned) [Example 1129]	110 nM	1800 nM	410 nM					
C[C@@H]1CN(c2c(C#N)c(=O)n(C)c3ccc(C#N)nc23)[C@@H](C)CN1C(c1ccc(Cl)cc1)c1ncccc1F (single isomer, unassigned) [Example 819]					2300 nM	2900 nM	2200 nM	
CC[C@H]1CN(C(c2ccc(F)cc2)c2ccc(C(F)(F)F)cn2)[C@H](C)CN1c1cc(=O)n(C)c2ccc(C#N)nc12 (single isomer, unassigned) [Example 1131]	73 nM	180 nM		430 nM				
CCc1noc(C(c2ccc(F)cc2)N2C[C@H](C)N(c3cc(=O)n(C)c4ccc(C#N)nc34)C[C@H]2C)n1 (single isomer, unassigned) [Example 754]					58 nM	230 nM		91 nM

Structure (SMILES)	IC50 (human DGKα; liposome (LIPGLO) assay)	IC50 (human DGKζ; liposome (LIPGLO) assay)	EC50 (Human venous whole blood; [1])	EC50 (Human venous whole blood; [2])	IC50 (human DGKα; DGKα liposome (LIPGLO) assay)	IC50 (human DGKζ; DGKζ liposome (LIPGLO) assay)	EC50 (Human venous whole blood; [3])	EC50 (Human venous whole blood; [4])
C[C@@H]1CN(c2cc(=O)n(C)c3ccc(C#N)nc23)[C@@H](C)CN1C(c1ccc(F)cc1)c1cnc(C2CC2)s1 (single isomer, unassigned) [Example 727]					37000 nM	1600 nM	1300 nM	
Cc1ccc(C(c2ccc(F)cc2)N2CCN(c3c(C#N)c(=O)n(C)c4ccc(C#N)nc34)C[C@H]2C)nc1 (single isomer, unassigned) [Example 904]					170 nM	1400 nM	520 nM	
C[C@@H]1CN(c2cc(=O)n(C)c3ccc(C#N)nc23)[C@@H](C)CN1C(c1ccc(F)cc1)c1cncn1C (stereo partly drawn) [Example 705]	220000 nM	19000 nM		9100 nM				
CC[C@H]1CN(C(C)c2ccc(OC(F)F)cc2)[C@H](C)CN1c1cc(=O)n(C)c2ccc(C#N)nc12 (single isomer, unassigned) [Example 1145]	310 nM	860 nM		3300 nM				
Cc1cc(C(c2ccc(F)cc2)N2C[C@H](C)N(c3c(C#N)c(=O)n(C)c4ccc(C#N)nc34)C[C@H]2C)no1 (single isomer, unassigned) [Example 864]					170 nM	1000 nM	6500 nM	
CC(c1ccc(C2(C#N)CC2)cc1F)N1C[C@H](C)N(c2cc(=O)n(C)c3ccc(C#N)nc23)C[C@H]1C (single isomer, unassigned) [Example 1251]	1600 nM	250 nM	3900 nM					
Cc1cccc(C(c2ccc(F)cc2)N2CCN(c3c(C#N)c(=O)n(C)c4ccc(C#N)nc34)C[C@H]2C)n1 (single isomer, unassigned) [Example 905]					4600 nM	1200 nM	1300 nM	
C[C@@H]1CN(c2c(F)c(=O)n(C)c3ccc(C#N)nc23)[C@@H](C)CN1C(c1ccc(Cl)cc1)c1ccc(OC(F)(F)F)cc1 (stereo partly drawn) [Example 324, 8-((2S,5R)-4-((4-chlorophenyl)(4-(trifluoromethoxy)phenyl)methyl)-2,5-dimethylpiperazin-1-yl)-7-fluoro-5-methyl-6-oxo-5,6-dihydro-1,5-naphthyridine-2-carbonitrile]	1200 nM	4100 nM		4700 nM				
C[C@@H]1CN(c2cc(=O)n(C)c3ccc(C#N)nc23)[C@@H](C)CN1C(c1c(F)cc(O)cc1F)C(F)(F)F (single isomer, unassigned) [Example 592]	5500 nM	19000 nM	3600 nM					
CC[C@H]1CN(C(C)c2ccc3c(c2)OC(F)(F)O3)[C@H](CC)CN1c1cc(=O)n(C)c2ccc(C#N)nc12 (single isomer, unassigned) [Example 1368]	330 nM	34 nM		63 nM				
CC[C@@H]1CN(c2cc(=O)n(C)c3ccc(C#N)nc23)[C@@H](C)CN1C(c1ccc(F)cc1)c1nc(C2CC2)cs1 (single isomer, unassigned) [Example 1338]	69 nM	29 nM	130 nM					
Cc1cc(C)cc(CN2CCN(c3c(C#N)c(=O)n(C)c4ccc(C#N)nc34)C[C@H]2C)c1 [Example 1000]					2700 nM	6200 nM	4000 nM	
C[C@H]1CN(C(c2ccc(F)cc2)c2ccc(F)cc2)[C@H](CNS(C)(=O)=O)CN1c1cc(=O)n(C)c2ccc(C#N)nc12 [Example 1410, N-(((2S,5S)-1-(bis(4-fluorophenyl)methyl)-4-(6-cyano-1-methyl-2-oxo-1,2-dihydro-1,5-naphthyridin-4-yl)-5-methylpiperazin-2-yl)methyl)methanesulfonamide]	22000 nM	98 nM	1800 nM					
C[C@@H]1CN(c2cc(=O)n(C)c3ccc(C#N)nc23)[C@@H](C)CN1C(Cc1nc(C2CC2)no1)c1ccc(F)cc1 (single isomer, unassigned) [Example 1327]	200 nM	290 nM		180 nM				
CC(c1ccc(OC(C)(C)C)cc1)N1C[C@H](C)N(c2cc(=O)n(C)c3ccc(C#N)nc23)C[C@H]1C (single isomer, unassigned) [Example 1442]	65 nM	1000 nM		530 nM				
CC(c1ccc(F)c(Cl)c1)N1C[C@H](C)N(c2cc(=O)n(C)c3ccc(C#N)nc23)C[C@H]1C (single isomer, unassigned) [Example 1256]	680 nM	180 nM		480 nM				
C[C@H]1CN(C(c2ccc(F)cc2)c2ccc(C(F)(F)F)cn2)[C@H](CO)CN1c1cc(=O)n(C)c2ccc(C#N)nc12 (single isomer, unassigned) [Example 1388]	1100 nM	2800 nM	880 nM					
